Test results published in PMC9241695, “Selective Metal Chelation by a Thiosemicarbazone Derivative Interferes with Mitochondrial Respiration and Ribosome Biogenesis in Candida albicans” (Microbiology Spectrum, 2022).
Values after ≈ are worked out from the molar mass of the structure shown.

How the values were obtained:
[1] = Cytotoxicity testing (MTT); type: cell-based, human; conditions: human, HepG2 cells (hepatocellular carcinoma cell line)
[2] = tested on: human hepatocellular carcinoma cell line HepG2; test: Cytotoxicity testing (MTT); type: cell-based; conditions: ratio of IC50 against HepG2 to MIC80 against C. albicans SC5314
C. albicans SC5314 [3] = test: RNA-seq transcriptional analysis; type: cell-based, Candida albicans
Description: C. albicans SC5314 cells were inoculated into RPMI 1640 medium at a concentration of 1 × 10^7 cells/mL and incubated at 30°C for 6 h. The cells were then harvested, and RNA extraction was performed with the Yeast RNA Kit (OMEGA, Guangzhou, China). RNA purity was evaluated using a Nanodrop-2000, and RNA integrity was assessed using the RNA Nano 6000 detection kit. RNA-Seq libraries are prepared using NEB Next Ultra RNA Library Prep Kit (NEB, MA, USA) for Illumina. The cDNA library quality was quantified first by using Qubit 2.0 Fluorometer, detected on Agilent 2100 bioanalyzer. Clustering was performed in the cBot cluster generation system. After cluster generation, the library preparations were sequenced on the Illumina Novaseq platform. Library construction and sequencing were performed by Novogene (Beijing, China). Each sample was analyzed in triplicate.
The raw data in fastq format were first processed by an internal perl script. In this step, clean data were obtained by applying various processing methods. […] The clean reads were individually mapped to the C. albicans SC5314 reference genome using HISAT2 (v2.0.5). The fragments per kilobase of transcript per million mapped reads (FPKM) value was calculated for each gene, and the read counts were mapped to the genes. […] Genes with an adjusted P value < 0.05 and |log2FoldChange| > 1 as detected by DESeq2 were considered DEGs. […]

C. albicans SC5314 [4] = test: Time-growth curve with antioxidants; type: cell-based, Candida albicans; conditions: SC medium, 5 mM NAC or 5 mM Tu, 0.25 or 0.5 μg/mL 19ak, 15 h
Description: albicans SC5314 cells (1 × 10^6 cells/mL) were challenged with various doses of 19ak and incubated at 30°C for 6 h, followed by staining with 20 μM Rh123 for 30 min in the dark and detection by flow cytometry (Becton Dickinson, CA, USA).
Measurement of intracellular ATP production. To explore whether 19ak affects intracellular ATP content by damaging mitochondria, we treated C. albicans SC5314 cells (1 × 10^6 cells/mL) with different doses of 19ak. After lysing the cells in lysis buffer, ATP levels were measured with the ATP Assay Kit (Beyotime, Haimen, China) according to the manufacturer's instructions. Cellular protein concentrations were determined using a BCA Protein Assay Kit (Beyotime, Haimen, China). The intracellular ATP content was calculated by referring to a standard curve and normalized using the protein content of each sample for expression as nmol/mg […]
ROS production assay. […] The fluorescence intensity was then measured by flow cytometry, and the data were analyzed with Win MDI 2.9 software.
Influence of oxidant or antioxidant molecules on 19ak activity. […] The effects of NAC, Tu and DTT on the growth of 19ak treated fungal cells were measured using a time-growth curve. […] A microplate reader was used to measure the absorbance at600 nm, and the growth curves were plotted.

C. neoformans H99 = test: Antifungal susceptibility testing, microbroth dilution MIC; type: cell-based; conditions: Cryptococcus neoformans, H99; C. neoformans wild-type strain; 48 h; read-out: MIC (μg/mL) against fungi H99
Source text: (§1) Compound library. The thiosemicarbazone derivatives Triapine and COTI-2 were purchased from Med Chem Express (MCE). The other 87 thiosemicarbazones used in this study were previously synthesized by our collaborators (1, 2). Their structures are shown in Table 1 and Table S1 to help the reader clearly understand the relationship between structure and activity.
(§2) Strains and culture conditions. Clinically derived C. albicans isolates, including G5, F5, and Gu5, were kindly provided by Professor Joachim Morschhäuser of the University of Würzburg. Other clinical C. albicans isolates were kindly donated by Professor Qingguo Qi of Shandong University and Qianfoshan Hospital of Shandong Province Other Candida strains were obtained from Jinan Central Hospital.
(§3) The zap1 mutant and its complemented strain were kindly provided by Professor Aaron P. Mitchell of Carnegie Mellon University (3). The C. neoformans strains used in this study was kindly donated by Professor Guojian Liao of Southwest University and A. fumigatus strain used in this study was provided by Professor Ling Lu of Nanjing Normal University. […]
(§4) Antifungal susceptibility testing. To determine in vitro antifungal activities, the microbroth dilution method was carried out in RPMI1640 medium according to the guidelines of the Clinical and Laboratory Standards Institute (4, 5). The initial concentration in RPMI1640 medium was 1 × 10^3 CFU/mL for the C. albicans and C. neoformans suspensions but 1 × 10^4 CFU/mL for A. fumigatus. The range of final drug concentrations was 0.0156–64 μg/mL. The plates were incubated at35°C for 24 […]
(§5) h (for C. albicans, C. krusei, C. tropicalis, C. parapsilosis) or 48 h (for C. neoformans, A. fumigatus). The MIC was determined based on visible growth inhibition compared with the control. All experiments were performed in duplicate. […]

A. fumigatus AF293 = test: as above; type: cell-based; conditions: Aspergillus fumigatus, AF293; standard strain of A. fumigatus; 48 h; read-out: MIC (μg/mL) against fungi AF293
Source text: as §1, §2, §3, §4, §5

For `C/C(=N\NC(=S)N(C)C)c1ccccn1` [Compound 19ak], which IC50 [1] is on record?
Its IC50 is 10.3 µg/mL (≈ 46.3 µM).

And the “Selectivity index HepG2” value [2]?
Its value is 82.4.

What about the “Expression of genes involved in iron and zinc acquisition” value (C. albicans SC5314 [3]; high dose (2 μg/mL)) of the same compound?
Its value is “downregulated”.

And the “Expression of genes involved in iron and zinc acquisition” value (C. albicans SC5314 [3]; low dose (0.5 μg/mL))?
The value was “strongly induced”.

What about the “Effect of antioxidants NAC and Tu on antifungal activity (cell growth monitoring)” value (C. albicans SC5314 [4]) of the same compound?
Its value is “greatly enhanced the antifungal activity”.

What about the MIC (C. neoformans H99) of the same compound?
Its MIC is 0.5 µg/mL (≈ 2.25 µM).

What about the MIC (A. fumigatus AF293) of the same compound?
Its MIC is 0.5 µg/mL (≈ 2.25 µM).
